Measurements reported in patent US11617369B2, “Antimicrobial gallium compounds and methods” (The Board of Supervisors of Louisiana State University and …, priority 2018, dated 2023).
“Also recorded” adds a separate entry of the source.

Columns and labels:
[1] = cited from earlier work
[2] = Gallium release from composite discs, spectrophotometric method; conditions: 15% chelate in the monomer; deionized water pH=7.0; 4 days (FIG. 13)
[3] = Stability of aqueous gallium complex solutions with pH; type: physicochemical; conditions: solution of 2×10^−3 M
[4] = test system: Streptococcus pneuomoniae; assay: Antibacterial activity by optical density of cultures with serial dilution of the compounds; type: cell-based; conditions: pH 5.9, 18 hours
Method: (§1) The antibacterial activities of three complexes against six oral bacteria at pH 5.9 were tested by measuring the optical density (OD, at 600 nm) of the cultures in […] of different bacteria with the presence of serial dilution of the compounds (10^−2M-7.81×10^−5M) after culture at 5% CO2 under 37° C. for 18 hours. The midpoint concentration (IC 50) was determined at the concentration that corresponds to 50% of maximum OD. The minimum inhibition concentration (MIC) was determined at the concentration that corresponds to 10% or less of OD of the control (without any gallium compound).

Streptococcus sobrinus = assay: as above; type: cell-based; conditions: pH 5.9, 18 hours
Method: as §1

Actinomyces naeslundii = assay: as above; type: cell-based; conditions: pH 5.9, 18 hours
Method: as §1

Pseudomonas aeruginosa = assay: as above; type: cell-based; conditions: pH 5.9, 18 hours
Method: as §1

Lactobacillus casei = assay: as above; type: cell-based; conditions: pH 5.9, 18 hours
Method: as §1

Streptococcus mutans = assay: as above; type: cell-based; conditions: pH 5.9, 18 hours
Method: as §1

[5] = 37° C., 5% CO2, OD at 600 nm, read-out: Midpoint concentration (IC50)
[6] = 10% or less of OD of the control

SMILES: [F][Ga]([F])[F] [GaF3, gallium trifluoride]
- solubility in water [1]: 15.8 µM
- solubility in water (words) [1]: sparingly soluble

SMILES: [Ga+3].[Ga+3].[O-2].[O-2].[O-2] [Ga2O3, gallium oxide]
- solubility in water (words) [1]: insoluble in water

SMILES: C=C(C)C(=O)OCCOc1ccc(C(C)(CCC(=O)NCCCCC(C(=O)[O-])N(CC(=O)[O-])CC(=O)O)c2ccc(OCCOC(=O)C(=C)C)cc2)cc1.F.[F-].[Ga+3] (stereo not shown) [ternary gallium fluoride chelate, monogallium(III) mono(2,2′-((5-(4,4-bis(4-(2-(methacryloyloxy)ethoxy)phenyl)pentanamido)-1-carboxylatopentyl)azanediyl)diacetate) monofluoride hydrofluoride]
- amount of gallium ion released compared with those without the chelate [2]: nearly double

SMILES: [F][Ga-2]([F])([F])([F])[F].[Na+].[Na+] [Na2GaF5]
- pH up to which the solution is stable [3]: ≤ 5.9
- IC50 [4, 5]: 1880 µM
- Minimum Inhibition Concentration (MIC) [4, 6]: 5000 µM
- IC50 (Streptococcus sobrinus; [5]): 1250 µM
- Minimum Inhibition Concentration (MIC) (Streptococcus sobrinus; [6]): 5000 µM
- IC50 (Actinomyces naeslundii; [5]): 1880 µM
- Minimum Inhibition Concentration (MIC) (Actinomyces naeslundii; [6]): 2500 µM
- IC50 (Pseudomonas aeruginosa; [5]): > 1880 µM
- Minimum Inhibition Concentration (MIC) (Pseudomonas aeruginosa; [6]): 50 µM
- IC50 (Lactobacillus casei; [5]): > 5000 µM
- Minimum Inhibition Concentration (MIC) (Lactobacillus casei; [6]): >10^−2M
- IC50 (Streptococcus mutans; [5]): 1250 µM
- Minimum Inhibition Concentration (MIC) (Streptococcus mutans; [6]): 2500 µM

SMILES: [Ga+3].[OH-].[OH-].[OH-] [Ga(OH)3]
- solubility in water (words) [1]: sparingly soluble; also recorded: low solubility in water
- Ksp=[Ga^3+][OH^−]^3 ([1]; in water): 3.28×10^−36
